This is an account of results in patent publication US10648968B2, “In vitro test system to evaluate xenobiotics as immune-modulators of drug transport and metabolism in human hepatocytes” (XenoTech, LLC, priority 2011, dated 2020).

Data set [1] relates to CYP3A4. Particulars: co-cultures of hepatocyte and Kupffer cells, three livers, treated daily for 72 hours; testosterone 6β-hydroxylation by LC/MS/MS.
In data set [2] the test system is CYP1A2. The conditions noted are these: co-cultures of hepatocyte and Kupffer cells, three livers, treated daily for 72 hours; phenacetin O-dealkylation by LC/MS/MS.
For data set [3] the following is noted: in humans following LPS treatment; correlated with changes in TNF and IL-6; cited from earlier work.

With lipopolysaccharides [LPS], the CYP3A4 activity entry in data set [1] was “decrease”. Also, the CYP1A2 activity result in data set [2] is reported as “decrease”. Moreover, the “antipyrine (AP) clearance” value in data set [3] is “changes”.
